Data from US20080262066A1, “Azole Derivatives as Cannabinoid CB1 Receptor Antagonists” (Green Cross Corporation, priority 2007, published 2008).

molecular target: T1, rat CB-1 receptor (Rattus norvegicus, UniProt P20272); assay: rat CB-1 receptor binding protocol with [3H]CP-55940 on SD rat brain tissue; details: [3H]CP-55940 displacement, SD rat brain homogenate, 30° C., 60 min; read-out: IC50 (binding affinity for CB1 receptor)
T1 construct: The tissue obtained from the brain of SD rats was homogenized; from tissue; host or cells: SD rat brain (membrane pellet of homogenate)
T1 sequence (P20272 whole entry): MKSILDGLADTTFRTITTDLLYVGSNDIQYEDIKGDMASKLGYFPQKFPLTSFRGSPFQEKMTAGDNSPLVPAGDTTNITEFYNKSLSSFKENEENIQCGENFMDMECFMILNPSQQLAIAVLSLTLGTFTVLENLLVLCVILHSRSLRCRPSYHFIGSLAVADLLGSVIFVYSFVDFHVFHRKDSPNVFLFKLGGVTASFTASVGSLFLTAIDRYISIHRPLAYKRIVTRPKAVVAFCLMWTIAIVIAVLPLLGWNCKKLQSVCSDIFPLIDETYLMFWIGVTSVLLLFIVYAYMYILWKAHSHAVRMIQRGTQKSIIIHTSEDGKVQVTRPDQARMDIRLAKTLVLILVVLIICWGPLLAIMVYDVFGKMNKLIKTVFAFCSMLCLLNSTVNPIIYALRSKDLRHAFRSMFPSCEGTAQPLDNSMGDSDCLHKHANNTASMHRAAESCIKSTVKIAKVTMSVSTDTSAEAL
Procedure: The tissue obtained from the brain of SD rats was homogenized with a Dounce homogenate system in TME (50 mM Tris, 3 mM MgCl2 and 1 mM EDTA, pH 7.4) at 4° C., and the homogenate was centrifuged at 48,000 g for 30 min. at 4° C. The pellet was resuspended in 5 ml of TME and the suspension was divided into aliquots and stored at −70° C. until its use in the following assay.
The tissue concentrations were determined by Bradford protein analysis, and 148 μl of brain tissue of the required concentration was added to the plate. The plate was covered and placed in a 30° C. incubator for 60 min, and then transformed on GF/B filtermat pretreated in polyethylenimine (PEI) using a cell harvester. Each filter was washed five times and dried at 60° C. for 1 hr. Then, the degree of radioactivity retained by the filter was measured using Wallac Microbeta™ (PerkinElmer Life Sciences, Inc., Massachusetts, U.S.A.) and the activity of the compound for inhibiting CB1 receptor was determined therefrom.

Compound | IC50 [nM]
CCCC(=O)NCNC(=O)c1nn(-c2ccc(Cl)cc2Cl)c(-c2ccc(Cl)cc2)c1C [Example 36, N-(Butyramidomethyl)-5-(4-chlorophenyl)-1-(2,4-dichlorophenyl)-4-methyl-1H-pyrazole-3-carboxamide] | 905
Cc1c(C(=O)NCNC(=O)C(C)C)nn(-c2ccc(Cl)cc2Cl)c1-c1ccc(Cl)cc1 [Example 37, 5-(4-Chlorophenyl)-1-(2,4-dichlorophenyl)-N-(isobutyramidomethyl)-4-methyl-1H-pyrazole-3-carboxamide] | 951
Cc1c(C(=O)NCNC(=O)C2CCCCCC2)nn(-c2ccc(Cl)cc2Cl)c1-c1ccc(Cl)cc1 [Example 38, 5-(4-Chlorophenyl)-N-(cycloheptanecarboxamidomethyl)-1-(2,4-dichlorophenyl)-4-methyl-1H-pyrazole-3-carboxamide] | 75.6
Cc1c(C(=O)NCNC(=O)CC2CCCCC2)nn(-c2ccc(Cl)cc2Cl)c1-c1ccc(Cl)cc1 [Example 39, 5-(4-Chlorophenyl)-N-((2-cyclohexylacetamido)methyl)-1-(2,4-dichlorophenyl)-4-methyl-1H-pyrazole-3-carboxamide] | 46.5
Cc1c(C(=O)NCNC(=O)C2CCCC(C)C2)nn(-c2ccc(Cl)cc2Cl)c1-c1ccc(Cl)cc1 (stereo not drawn) [Example 40, 5-(4-Chlorophenyl)-1-(2,4-dichlorophenyl)-4-methyl-N-((3-methylcyclohexanecarboxamido)methyl)-1H-pyrazole-3-carboxamide] | 102
Cc1c(C(=O)NCNC(=O)CC2CCCC2)nn(-c2ccc(Cl)cc2Cl)c1-c1ccc(Cl)cc1 [Example 41, 5-(4-Chlorophenyl)-N-((2-cyclopentylacetamido)methyl)-1-(2,4-dichlorophenyl)-4-methyl-1H-pyrazole-3-carboxamide] | 138
